Experimental data reported in article PMC7288559 (ACS Omega, 2020).

What was measured:
recombinant human LDHA = recombinant human LDHA (Homo sapiens, UniProt P00338); assay: LDHA enzymatic assay based on NADH cofactor consumption [NAD; format: biochemical; conditions: in vitro, dose-dependent
[1] = test system: hepatocellular carcinoma cells Snu-398; format: cell-based; conditions: lactate in supernatant
[2] = test system: pancreatic carcinoma cells MIA PaCa-2; format: cell-based; conditions: lactate in supernatant

Row | Inhibition of lactate production by recombinant human LDHA (recombinant human LDHA) | SMILES | Inhibition of lactate production in cells [1] | Inhibition of lactate production in cells [2]
1 | completely inhibited | O=C(O)c1ccc(CN2C(=O)c3cccc(NC(=O)c4ccc(Cl)s4)c3C2=O)cc1 [Compound 3, 4-[(4-{[(5-chloro-2-thienyl)carbonyl]amino}-1,3-dioxo-1,3-dihydro-2H-isoindol-2-yl)methyl]benzoic acid] | neither 3 nor 7 showed inhibition | neither 3 nor 7 showed inhibition
2 | completely inhibited | O=C(Nc1cccc(NS(=O)(=O)c2ccc3oc4cc([N+](=O)[O-])ccc4c3c2)c1)C1(O)CC1 [Compound 7, 1-hydroxy-N-(3-{[(7-nitrodibenzo[b,d]furan-2-yl)sulfonyl]amino}phenyl)cyclopropanecarboxamide] | neither 3 nor 7 showed inhibition | neither 3 nor 7 showed inhibition
